Source: patent US20210330611A1, “THERAPY FOR NEUROLOGICAL DISEASES/DISORDERS” (priority 2020, published 2021)
Values joined by “and” are separate entries in the source; they are usually repeats but may differ in a detail not shown here. Equal entries are not always repeated. Structures can show the parent of a compound that is named as a salt. Where two headings read alike, the source gives them in different places.

How the values were obtained:
Assay type in all cases: cell-based, rat
[1] = tested on: LPS-induced microglia activation; experiment: Image-based assay of LPS-induced microglia activation (HTS and dose response)
[2] = tested on: fibrin-induced microglia activation; experiment: Image-based assay of fibrin-induced microglia activation (HTS and dose response); conditions: for inhibition at 10 µM: read-out: Fibrin % inhibition
[3] = tested on: fibrin- and LPS-induced microglia activation; experiment: cells
[4] = Rattus norvegicus, Microglia, read-out: LPS % inhibition
[5] = Rattus norvegicus, Microglia, 48 h, primary microglia HTS, LPS stimulation; increased cell size (>800 μm^2) as marker of activation; read-out: LPS % inhibition
[6] = Rattus norvegicus, Microglia, primary microglia HTS, LPS stimulation, compounds at 10 μM; read-out: LPS % inhibition
[7] = quadrant by fibrin and LPS inhibition in HTS of 1907 compounds
[8] = Rattus norvegicus, Microglia, primary microglia HTS, fibrin stimulation, increased cell size (>800 μm^2) as marker of activation
[9] = Rattus norvegicus, Microglia, 48 h, read-out: LPS % inhibition
[10] = classification by fibrin and LPS inhibition, HTS at 10 μM

CN1[C@@H]2CC[C@H]1C[C@@H](OC(=O)C(CO)c1ccccc1)C2 (stereo partly shown) [Atropine]
inhibition at 10 µM [1, 4]: 4%
inhibition at 10 µM ([2]; Rattus norvegicus, Microglia): -21%

C[C@]12CCC(=O)C=C1CC[C@@H]1[C@@H]2C(=O)C[C@@]2(C)[C@H]1CC[C@]2(O)C(=O)CO [Cortisone]
LPS % inhibition ([1]; primary HTS, 10 μM, LPS-stimulated primary microglia): 44%
Quadrant (FIG. 5b) ([3]; primary HTS, 10 μM): Q4
Fibrin % inhibition ([2]; primary HTS, 10 μM, fibrin-stimulated primary microglia): 37%

CC(N/C(=N\C#N)Nc1ccncc1)C(C)(C)C (stereo not shown) [Pinacidil]
inhibition at 10 µM ([1]; Rattus norvegicus, Microglia, 48 h; read-out: LPS % inhibition): 26%
Quadrant (FIG. 5b) ([3]; classification by fibrin and LPS inhibition in HTS): Q4
inhibition at 10 µM ([2]; Rattus norvegicus, Microglia, primary microglia HTS, fibrin stimulation, cell size >800 μm2 as marker of activation): 15%

CN1CCCCC1CCN1c2ccccc2Sc2ccc([S+](C)[O-])cc21 (stereo not shown) [Mesoridazine]
inhibition at 10 µM ([2]; Rattus norvegicus, Microglia): -5%

O=c1c(-c2ccccc2)coc2cc(O)cc(O)c12 [5,7-dihydroxyisoflavone]
IC50 ([1]; Rattus norvegicus, Microglia, Table 7; read-out: LPS_IC50): 21 nM
Activity ([3]; Table 7, fib = fibrin, LPS, tox = toxicity): fib/LPS
IC50 ([2]; Rattus norvegicus, Microglia, Table 7, read-out: fib_IC50): 172 nM

Cc1nccn1CC1CCc2c(c3ccccc3n2C)C1=O (stereo not shown) [Ondansetron]
inhibition at 10 µM [1, 5]: 14%
inhibition at 10 µM [1, 6]: 92%
Quadrant (FIG. 5b) [3, 7]: Q4
Quadrant (FIG. 5b) ([3]; quadrant by fibrin and LPS inhibition, HTS at 10 μM): Q2
inhibition at 10 µM ([2]; Rattus norvegicus, Microglia, primary microglia HTS, fibrin stimulation, compounds at 10 μM): 106%
inhibition at 10 µM [2, 8]: -6%

CCn1cc(C(=O)O)c(=O)c2cc(F)c(N3CCN(C)CC3)cc21 [Pefloxacin]
inhibition at 10 µM [1, 9]: 21%

COc1ccccc1OCCNCC(O)COc1cccc2[nH]c3ccccc3c12 (stereo not shown) [Carvedilol, Carvedilol Phosphate]
LPS % inhibition ([1]; 10 µM): 15% and 19%
Quadrant (FIG. 5b) [3]: Q4

OCc1cccnc1 [Nicotinyl Alcohol Tartrate]
inhibition at 10 µM [1, 5]: 4%
inhibition at 10 µM [2, 8]: -5%

Dimenhydrinate
Quadrant (FIG. 5b) [3, 10]: Q4

CC[C@H]1OC(=O)[C@H](C)[C@@H](O[C@H]2C[C@@](C)(OC)[C@@H](O)[C@H](C)O2)[C@H](C)[C@@H](O[C@@H]2O[C@H](C)C[C@H](N(C)C)[C@H]2O)[C@](C)(O)C[C@@H](C)C(=O)[C@H](C)[C@@H](O)[C@]1(C)O [Erythromycin]
inhibition at 10 µM [1, 6]: 20%
LPS % inhibition ([1]; primary microglia HTS, LPS stimulation, compounds at 10 μM; 10 µM): 13%
Quadrant (FIG. 5b) [3, 10]: Q4

Cc1cn([C@H]2C[C@H](N=[N+]=[N-])[C@@H](CO)O2)c(=O)[nH]c1=O [Zidovudine]
LPS % inhibition ([1]; 10 µM): 13%
inhibition at 10 µM [1, 4]: 9%
Quadrant (FIG. 5b) [3]: Q4

C#CC1(O)CC[C@H]2[C@@H]3CCC4=CC(=O)CC[C@@H]4[C@H]3CC[C@@]21CC (stereo partly shown) [Norgestrel, Levonorgestrel]
LPS % inhibition ([1]; primary microglia HTS, LPS stimulation; increased cell size (>800 μm^2) as marker of activation): 14%
Fibrin % inhibition ([2]; primary microglia HTS, fibrin stimulation, increased cell size (>800 μm^2) as marker of activation): 13%

CN1[C@@H]2CC[C@H]1C[C@@H](OC(=O)[C@H](CO)c1ccccc1)C2 [Hyoscyamine]
inhibition at 10 µM [1, 9]: 13%

CN1CCN(CCCN2c3ccccc3Sc3ccc(Cl)cc32)CC1 [Prochlorperazine dimaleate, reference compound]
Activity [3]: fib/LPS
Quadrant (FIG. 5b) [3]: Q4

C[C@H]1O[C@@H](O[C@H]2[C@@H](O)C[C@H](O[C@H]3[C@@H](O)C[C@H](O[C@H]4CC[C@@]5(C)[C@H](CC[C@@H]6[C@@H]5C[C@@H](O)[C@]5(C)[C@@H](C7=CC(=O)OC7)CC[C@]65O)C4)O[C@@H]3C)O[C@@H]2C)C[C@H](O)[C@@H]1O [Digoxin]
Quadrant (FIG. 5b) [3]: Q3 and Q4

O=C(O)c1cn(C2CC2)c2cc(N3CCNCC3)c(F)cc2c1=O [Ciprofloxacin]
inhibition at 10 µM [1, 4]: 17%
inhibition at 10 µM ([2]; Rattus norvegicus, Microglia): -30%

C[C@]12CC[C@@H]3c4ccc(O)cc4C[C@@H](CCCCCCCCC[S+]([O-])CCCC(F)(F)C(F)(F)F)[C@H]3[C@@H]1CC[C@@H]2O (stereo partly shown) [Fulvestrant]
inhibition at 10 µM ([1]; Rattus norvegicus, Microglia, 48 h, primary microglia HTS, LPS stimulation, activation = cell size >800 μm2; read-out: LPS % inhibition): 15%
Quadrant (FIG. 5b) [3, 7]: Q4

CC(=O)S[C@@H]1CC2=CC(=O)CC[C@]2(C)[C@H]2CC[C@@]3(C)[C@@H](CC[C@@]34CCC(=O)O4)[C@H]12 [Spironolactone]
inhibition at 10 µM [1, 9]: 20%
Quadrant (FIG. 5b) [3]: Q4

Cc1cc2nc3c(=O)[nH]c(=O)nc-3n(C[C@H](O)[C@H](O)[C@H](O)CO)c2cc1C [Riboflavin]
Quadrant (FIG. 5b) [3]: Q4
